Data on one compound can be found in US20120283303A1, “USE OF N-AMINOIMIDAZOLE CYTOPROTECTIVE COMPOUNDS FOR TREATING CELL DEATH AND/OR GSK-3 MEDIATED DISEASES” (K.U.LEUVEN RESEARCH AND DEVELOPMENT, priority 2006, published 2012).

Molecules are shown by their SMILES.

In one assay the target is T1, P/CAF (H3 peptide) (Homo sapiens, UniProt Q92831).
T1 construct: purchased Upstate Biotechnology
Put plainly: Radiometric enzyme activity assay, P/CAF (H3 peptide). As to conditions: 5 μg/ml NR-818, 10 μM ATP. Format: biochemical. How it is done: (§1) GSK-3 were assayed for their ability to phosphorylate the appropriate peptide/protein substrate in the presence of 5 μg/ml NR-818 and 10 μM ATP. Using the direct radiometric approach, kinase activities were determined and expressed as % activity compared to the untreated control (Upstate Biotechnology, Lake Placid, N.Y.). Activities are given as the mean of duplicate determinations relative to control incubations in which the inhibitor was substituted with DMSO. In the following table 1 providing results for NR818, the following abbreviations are used: • CDK, cyclin-dependent kinase; • CK, casein kinase; • eEF-2K, eukaryotic elongation factor-2 kinase; • JNK, c-Jun N-terminal kinase; • MAPK, mitogen-activated protein kinase; • PKC, protein kinase C; and • PI 3-kinase, phosphatidylinositol 3-kinase.

In the next assay the target is T2, p300 (H4 peptide) (Homo sapiens, UniProt Q09472).
T2 construct: purchased Upstate Biotechnology
Put plainly: Radiometric enzyme activity assay, p300 (H4 peptide). Format: biochemical. To be noted: 5 μg/ml NR-818, 10 μM ATP. How it is done:
as §1

In assay [1] the test system is motor neurons. Put plainly: Basal survival of motor neurons in co-culture on glial feeder layer. The format is cell-based, Wistar rats. To be noted: FIG. 1A. As to the method: Cell cultures: Primary motor neuron cultures were prepared from Wistar rats as follows. Spinal cords were dissected from E14 embryos and collected in Hanks' Balanced Salt Solution (HBSS; Gibco Invitrogen, Grand Island, N.Y). Ventral cords were minced and digested for 15 minutes at 37° C. in 0.05% trypsin in HBSS. The solution was then replaced with medium A (L15 (Sigma, St.-Louis, Mo.) supplemented with glucose, progesterone, insulin, putrescine, conalbumin, sodium selenite, penicillin, streptomycin and 2% horse serum) containing 0.4% BSA and 20 μg/ml DNase and the tissue was dissociated by trituration. The resulting single cell suspension was layered on a 6.8% (weight/volume in L15) optiprep cushion (one spinal cord per tube) and centrifuged at 500 g for 15 minutes. […] To remove debris, both fractions were resuspended in medium A and centrifuged for 20 minutes at 75 g on a 4% BSA cushion. For co-cultures, 30,000 motor neurons of the F1 fraction were seeded on a glial feeder layer. Glial feeder layers were prepared by plating F2 cells in 35 mm dishes. After 4 weeks in vitro, cell division was halted by exposure to 10^−5 M cytosine arabinoside. […]
Exposure experiments: After 1 day in culture NAIM was added to the culture medium at different concentrations. […] In the experiment in which the effect of fresh medium was evaluated, the culture medium was replaced in total every day. […]

Assay [2] concerns motor neurons. Put plainly: Basal survival of motor neurons in monoculture. The format is cell-based, Wistar rats. As to the method:
Cell cultures: Primary motor neuron cultures were prepared from Wistar rats as follows. Spinal cords were dissected from E14 embryos and collected in Hanks' Balanced Salt Solution (HBSS; Gibco Invitrogen, Grand Island, N.Y). Ventral cords were minced and digested for 15 minutes at 37° C. in 0.05% trypsin in HBSS. The solution was then replaced with medium A (L15 (Sigma, St.-Louis, Mo.) supplemented with glucose, progesterone, insulin, putrescine, conalbumin, sodium selenite, penicillin, streptomycin and 2% horse serum) containing 0.4% BSA and 20 μg/ml DNase and the tissue was dissociated by trituration. The resulting single cell suspension was layered on a 6.8% (weight/volume in L15) optiprep cushion (one spinal cord per tube) and centrifuged at 500 g for 15 minutes. […] To remove debris, both fractions were resuspended in medium A and centrifuged for 20 minutes at 75 g on a 4% BSA cushion. For co-cultures, 30,000 motor neurons of the F1 fraction were seeded on a glial feeder layer. Glial feeder layers were prepared by plating F2 cells in 35 mm dishes. After 4 weeks in vitro, cell division was halted by exposure to 10^−5 M cytosine arabinoside. For monocultures, 45,000 motor neurons were seeded in 35 mm dishes.
Immunocytochemistry: Cell cultures were washed and fixed in cooled paraformadehyde 4% for 30 minutes. After three washes, cells were incubated in blocking solution (10% normal serum in phosphate buffered saline (PBS)) for 1 hour. Monoclonal anti-SMI-32 ( 1/10,000, Sternberger Monoclonal Inc., Luthersville, Md.) and goat anti-GFAP ( 1/10,000, Dako, Denmark) were incubated overnight in 1% normal serum in PBS. Secondary antibodies used were goat anti-mouse IgG Alaxa555 ( 1/500, Molecular Probes, Eugene, Oreg.) and donkey anti-goat FITC ( 1/500, Jackson ImmunoResearch, West Grove, Pa.).
Exposure experiments: After 1 day in culture NAIM was added to the culture medium at different concentrations. All other compounds were also added after 24 hours in culture. When culture medium was replaced, only half of the medium was taken and replaced by fresh medium, in which all different compounds were substituted as to maintain the initial concentration. In the experiment in which the effect of fresh medium was evaluated, the culture medium was replaced in total every day. […]
In order to determine whether the effect of NAIM was mediated through the secretion of a soluble factor in the medium by the underlying astroglial feeder layer, we prepared monocultures in which only motor neurons were present. […] In order to determine whether the protective effect of the compound was dose-dependent, we conducted a dose-response study, in which cultures were treated with different concentrations of NAIM from day 1 off and cell survival was assessed on day 5.

In assay [3] the test system is Peripheral blood mononuclear cells (PBMCs). Put plainly: PBMC survival (viable cell count, trypan blue exclusion). The format is cell-based, human. As to the method: Peripheral blood mononuclear cells (PBMCs) from healthy donors were isolated by density centrifugation (Lymphoprep; Nycomed Pharma, AS Diagnostics, Oslo, Norway). For the “non-stimulated” conditions (NS) the cells were cultivated at a density of 1,750,000 cells per ml in RPMI-1640 supplemented with 2 mM L-glutamine, 15% FCS and 0.1% NaHCO3 for 3 days. […] At day 0 of the experiment, the NS and activated cells (PHA-stimulated blasts) were washed with PBS and were pelleted by centrifugation. […] The number of viable cells was counted based on the trypan blue exclusion method. The evolution of the number of cells was followed over a period of approximately 2 weeks.

The next assay has as its target T3, GSK-3β (Homo sapiens, UniProt P49841).
T3 construct: purchased Upstate Biotechnology
Put plainly: Radiometric kinase activity assay. To be noted: GSK-3β; 5 μg/ml NR-818, 10 μM ATP. The format is biochemical. As to the method:
as §1
(§2) By using this experimental set-up, the inhibiting activity of NR953 on GSK-3 is also tested.

In the next assay the target is T4, GSK-3α (Homo sapiens, UniProt P49840).
T4 construct: purchased Upstate Biotechnology
Put plainly: Radiometric kinase activity assay. The format is biochemical. As to conditions: GSK-3α; 5 μg/ml NR-818, 10 μM ATP. As to the method: as §1, §2

For a further assay, the target named is T5, p300 (H3 peptide) (Homo sapiens, UniProt Q09472).
T5 construct: purchased Upstate Biotechnology
Put plainly: Radiometric enzyme activity assay, p300 (H3 peptide). Format: biochemical. To be noted: 5 μg/ml NR-818, 10 μM ATP. How it is done:
as §1

T3 sequence (P49841 whole entry): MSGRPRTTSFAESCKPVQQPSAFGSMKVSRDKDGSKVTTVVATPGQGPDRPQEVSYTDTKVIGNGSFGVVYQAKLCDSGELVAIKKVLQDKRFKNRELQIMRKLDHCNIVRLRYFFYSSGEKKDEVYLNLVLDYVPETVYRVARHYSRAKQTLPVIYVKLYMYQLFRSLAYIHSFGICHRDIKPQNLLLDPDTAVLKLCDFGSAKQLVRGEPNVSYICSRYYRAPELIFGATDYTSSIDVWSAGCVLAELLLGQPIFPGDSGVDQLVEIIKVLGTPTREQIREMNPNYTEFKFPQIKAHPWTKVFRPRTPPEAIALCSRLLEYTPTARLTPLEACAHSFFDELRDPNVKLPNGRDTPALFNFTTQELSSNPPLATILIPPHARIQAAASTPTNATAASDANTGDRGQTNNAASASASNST
T5 sequence (Q09472 whole entry): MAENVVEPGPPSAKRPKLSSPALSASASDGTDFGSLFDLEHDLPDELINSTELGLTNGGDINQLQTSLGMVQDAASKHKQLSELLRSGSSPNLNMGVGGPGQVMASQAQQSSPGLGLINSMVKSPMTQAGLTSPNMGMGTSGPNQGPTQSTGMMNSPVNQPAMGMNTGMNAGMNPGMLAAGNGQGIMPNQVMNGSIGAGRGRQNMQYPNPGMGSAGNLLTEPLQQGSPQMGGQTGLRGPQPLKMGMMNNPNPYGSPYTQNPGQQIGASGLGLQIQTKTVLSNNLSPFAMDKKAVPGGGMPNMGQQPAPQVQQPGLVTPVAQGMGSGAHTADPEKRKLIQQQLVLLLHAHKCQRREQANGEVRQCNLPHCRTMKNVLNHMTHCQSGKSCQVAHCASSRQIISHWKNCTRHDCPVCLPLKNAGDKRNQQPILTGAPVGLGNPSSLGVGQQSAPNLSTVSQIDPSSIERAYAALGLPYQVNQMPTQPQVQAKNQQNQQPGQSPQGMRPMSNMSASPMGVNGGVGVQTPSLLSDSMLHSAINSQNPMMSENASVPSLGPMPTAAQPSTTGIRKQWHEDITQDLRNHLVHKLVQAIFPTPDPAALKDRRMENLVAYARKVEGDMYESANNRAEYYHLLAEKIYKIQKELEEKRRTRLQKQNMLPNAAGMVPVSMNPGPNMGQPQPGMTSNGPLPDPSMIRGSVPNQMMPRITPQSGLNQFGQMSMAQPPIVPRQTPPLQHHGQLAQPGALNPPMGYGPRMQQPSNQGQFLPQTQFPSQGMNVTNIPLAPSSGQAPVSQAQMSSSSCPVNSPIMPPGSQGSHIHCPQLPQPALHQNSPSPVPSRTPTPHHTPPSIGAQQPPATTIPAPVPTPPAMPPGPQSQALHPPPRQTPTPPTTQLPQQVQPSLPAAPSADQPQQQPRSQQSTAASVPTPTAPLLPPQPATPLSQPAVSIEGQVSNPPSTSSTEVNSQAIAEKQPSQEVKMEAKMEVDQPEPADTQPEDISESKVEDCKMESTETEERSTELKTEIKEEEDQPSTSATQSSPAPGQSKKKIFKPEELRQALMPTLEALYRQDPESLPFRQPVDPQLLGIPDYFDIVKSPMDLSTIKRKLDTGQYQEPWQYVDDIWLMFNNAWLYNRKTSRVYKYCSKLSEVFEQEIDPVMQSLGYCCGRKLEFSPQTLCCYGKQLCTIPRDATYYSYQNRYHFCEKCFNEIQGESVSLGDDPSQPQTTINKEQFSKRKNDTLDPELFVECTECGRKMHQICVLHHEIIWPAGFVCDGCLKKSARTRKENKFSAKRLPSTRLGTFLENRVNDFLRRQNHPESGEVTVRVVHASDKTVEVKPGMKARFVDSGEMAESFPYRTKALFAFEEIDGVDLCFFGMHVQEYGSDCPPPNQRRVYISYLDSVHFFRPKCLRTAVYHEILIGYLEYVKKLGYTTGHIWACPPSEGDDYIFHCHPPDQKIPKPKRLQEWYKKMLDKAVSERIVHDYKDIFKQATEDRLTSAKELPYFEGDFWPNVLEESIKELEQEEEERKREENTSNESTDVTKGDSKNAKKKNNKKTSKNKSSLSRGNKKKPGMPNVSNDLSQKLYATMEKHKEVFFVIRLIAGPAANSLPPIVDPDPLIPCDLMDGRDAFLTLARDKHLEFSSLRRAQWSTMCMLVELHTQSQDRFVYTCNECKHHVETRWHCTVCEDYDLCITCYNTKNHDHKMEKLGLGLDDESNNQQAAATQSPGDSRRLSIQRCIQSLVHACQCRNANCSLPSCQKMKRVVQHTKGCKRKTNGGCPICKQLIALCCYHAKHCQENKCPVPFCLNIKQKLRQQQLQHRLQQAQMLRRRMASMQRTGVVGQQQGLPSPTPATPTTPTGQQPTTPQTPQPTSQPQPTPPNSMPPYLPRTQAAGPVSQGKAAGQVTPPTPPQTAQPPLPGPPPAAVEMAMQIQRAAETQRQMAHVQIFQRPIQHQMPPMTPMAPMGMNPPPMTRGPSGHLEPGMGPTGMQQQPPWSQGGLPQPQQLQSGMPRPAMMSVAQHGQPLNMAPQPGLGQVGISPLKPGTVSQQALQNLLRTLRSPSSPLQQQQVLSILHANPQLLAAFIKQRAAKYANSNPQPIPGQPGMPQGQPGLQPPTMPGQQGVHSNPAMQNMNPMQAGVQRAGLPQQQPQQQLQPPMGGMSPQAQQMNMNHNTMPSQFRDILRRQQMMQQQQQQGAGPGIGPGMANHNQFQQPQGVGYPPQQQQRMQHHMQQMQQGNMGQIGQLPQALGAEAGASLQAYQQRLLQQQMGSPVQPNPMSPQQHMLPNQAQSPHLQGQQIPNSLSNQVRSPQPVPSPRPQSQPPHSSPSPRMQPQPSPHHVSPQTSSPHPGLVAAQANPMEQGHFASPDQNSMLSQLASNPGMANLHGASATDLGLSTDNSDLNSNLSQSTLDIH
T2 sequence (Q09472 whole entry): as above
T4 sequence (P49840 whole entry): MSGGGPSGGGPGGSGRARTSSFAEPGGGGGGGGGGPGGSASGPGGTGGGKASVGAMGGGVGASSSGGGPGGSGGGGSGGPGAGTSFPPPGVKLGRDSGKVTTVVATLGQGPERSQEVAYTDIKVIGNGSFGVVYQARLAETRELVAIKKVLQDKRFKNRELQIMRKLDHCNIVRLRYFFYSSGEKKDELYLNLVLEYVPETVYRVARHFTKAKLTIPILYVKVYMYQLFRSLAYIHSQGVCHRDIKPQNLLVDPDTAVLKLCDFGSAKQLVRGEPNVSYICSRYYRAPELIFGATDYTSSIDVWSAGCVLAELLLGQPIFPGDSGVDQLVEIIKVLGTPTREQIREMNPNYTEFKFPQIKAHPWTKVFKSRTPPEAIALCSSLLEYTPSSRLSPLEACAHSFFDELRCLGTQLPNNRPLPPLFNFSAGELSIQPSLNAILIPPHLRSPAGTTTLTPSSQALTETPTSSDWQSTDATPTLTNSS
T1 sequence (Q92831 whole entry): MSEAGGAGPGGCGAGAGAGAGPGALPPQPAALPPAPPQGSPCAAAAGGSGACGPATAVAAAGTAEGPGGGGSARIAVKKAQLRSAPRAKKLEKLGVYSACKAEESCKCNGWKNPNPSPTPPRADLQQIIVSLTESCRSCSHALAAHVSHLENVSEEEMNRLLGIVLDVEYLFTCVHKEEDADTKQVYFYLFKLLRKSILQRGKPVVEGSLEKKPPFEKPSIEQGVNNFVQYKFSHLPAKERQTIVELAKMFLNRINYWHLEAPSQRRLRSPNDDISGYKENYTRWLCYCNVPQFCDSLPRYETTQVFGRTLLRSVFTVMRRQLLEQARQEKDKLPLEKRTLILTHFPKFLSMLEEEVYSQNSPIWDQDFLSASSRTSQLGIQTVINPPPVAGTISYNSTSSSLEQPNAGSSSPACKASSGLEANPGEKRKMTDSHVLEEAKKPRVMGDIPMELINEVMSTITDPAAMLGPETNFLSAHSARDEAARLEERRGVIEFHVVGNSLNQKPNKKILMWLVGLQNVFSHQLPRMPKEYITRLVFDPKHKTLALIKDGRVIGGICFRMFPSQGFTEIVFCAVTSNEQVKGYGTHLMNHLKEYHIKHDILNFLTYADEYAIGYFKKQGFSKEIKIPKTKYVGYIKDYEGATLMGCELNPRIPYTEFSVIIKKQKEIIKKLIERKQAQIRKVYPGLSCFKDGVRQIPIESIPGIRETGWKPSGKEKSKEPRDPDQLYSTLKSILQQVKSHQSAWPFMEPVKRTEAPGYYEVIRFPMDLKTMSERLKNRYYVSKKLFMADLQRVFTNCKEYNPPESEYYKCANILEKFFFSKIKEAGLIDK

In the case of `Cc1nc(S)n(Nc2cccc3ccccc23)c1-c1ccccc1` [HER/NR818, 4-Methyl-1-(naphthalen-1-ylamino)-5-phenyl-1,3-dihydro-imidazole-2-thione], the “Activity (% of control)” value at P/CAF (H3 peptide) is reported as 99 % of control; on p300 (H4 peptide), 100 % of control; at GSK-3β it was 65 % of control; at GSK-3α, 70 % of control; at p300 (H3 peptide), 88 % of control. In addition, the “basal survival of motor neurons” value in the assay with motor neurons [1] is listed as “significant increase in the basal survival”; in the assay with motor neurons [2] (monoculture, FIG. 1B), “significant increase of the basal survival”. Besides, the “effect of daily medium replacement on protective properties” value with motor neurons [2] (medium replaced every day, FIG. 3) was “no effect on the protective properties”. Moreover, the “protective effect in combination with IL-2, IL-2-receptor blocking antibody or GM-CSF” value in the assay with motor neurons [2] (monoculture, survival on day 5, FIG. 4) is “not influenced by either of the added compounds”. In addition, in the assay on motor neurons [2] (monocultures, dose-response, treated from day 1, survival assessed on day 5, FIG. 2), the “optimal concentration for motor neuron survival” value turned out to be 1 µg/mL. Further, in assay [3] (IL-2 10 U/ml plus NAIM (NR818 2.5 μg/ml), stimulated and non stimulated cells, versus IL-2 only), the “PBMC cell count, NAIM combined with IL-2” value was “enhanced”. Also, the “PBMC cell viability, NAIM as such” value in assay [3] (NAIM alone, compared to control conditions) is reported as “did not affect the cell viability”.
